Paper PMC4413647, “Simultaneous targeting of androgen receptor (AR) and MAPK-interacting kinases (MNKs) by novel retinamides inhibits growth of human prostate cancer cell lines” (Oncotarget, 2014)

Legend:
[1] = system: 22Rv1 cells; assay: MTT cell proliferation assay, 7 d, 22Rv1; type: cell-based; settings: Homo sapiens, 22Rv1, 168 h, 7 d treatment
Source text: (§1) Androgen-dependent (LNCaP), androgen-independent (PC-3) and castration resistant (C4-2B and 22Rv1) human prostate carcinoma cells were procured from American Type Culture Collection, Manassas, VA, USA and maintained in RPMI 1640 media (Gibco-Life Technologies, Grand Island, NY, USA) supplemented with 10% fetal bovine serum and 1% penicillin/streptomycin. […] Immortalized untransformed prostate epithelial cells, PWR1E from American Type Culture Collection were maintained in serum-free Keratinocyte media (Gibco) supplemented with epidermal growth factor and bovine pituitary extract. All cell lines were maintained in a 37 °C/5% CO2 humidified atmosphere.
(§2) Cell proliferation assay was performed as described previously. For cell growth experiment, cells were treated with the NRs for 7 days. MTT assay was performed at the end of the experiment. Calculations of combination indices were done using the Calcusyn program (Biosoft, Cambridge, United Kingdom). For colony formation assay, cells were plated 1000 per well in complete media and allowed to adhere for 24 h. The next day cells were treated with indicated compounds (5 μM). After 24 h compound containing media were removed, and cells were allowed to form colonies in complete media. Approximately 2 weeks later the colonies were fixed, stained with 0.5% crystal violet (sigma) for 30 min and counted manually. Results represent the mean ± standard deviation of three independent experiments.

[2] = system: PWR-1E cells; assay: MTT cell proliferation assay, 7 d, PWR-1E; type: cell-based; settings: Homo sapiens, 168 h, immortalized untransformed prostate cells, 7 d treatment
Source text: as §1, §2

[3] = system: MR49F cells; assay: MTT growth inhibition in Enzalutamide resistant MR49F cells; type: cell-based, human; settings: Homo sapiens, MR49F; read-out: GI50 MR49F (Figure 2C)
Experimental: Figure 2 Effect of NRs on PCa cell growth and colony formation (A) Representative photographs of colonies formed in PCa cells at 14th day after initial treatment with specified compounds (5 μmol/L). Colonies were fixed with methanol and stained with crystal violet. (B) Data represents the mean ± S.E from three independent experiments. *, P< 0.05; ♣, P<0.01 compared to vehicle treated control. […] NRs that had promising inhibitory effect on cell proliferation on LNCaP cells were tested for their growth inhibitory effect in MR49F cells in comparison with Casodex and Abiraterone acetate by MTT assay.
as §1, §2

[4] = system: LNCaP cells; assay: Cell cycle FACS analysis (PI staining); type: cell-based, human; settings: 5 μM, 24 h, untreated control 37.1%
Experimental: Figure 4 Effect of NRs on cell cycle and apoptosis (A) LNCaP cells treated with 5 μM of NRs and other compounds for 24 h were stained with PI and analysed with a FACS calibur flow cytometer. (B) Total cell lysates from PCa cells treated with 20 μM of NRs were separated by SDS-PAGE and probed with cyclin D1 and B antibodies. […] (C) LNCaP cells were treated with indicated compounds (5 μmol/L) for 24 h and apoptosis induction was examined by oligonucleosomal fragmentation. Data are shown relative to vehicle treated control and the bars are means of three replicate determinations plus standard deviations. *, P< 0.01; ♣, P<0.05 compared with vehicle treated control. […] After 24 h the plates were analyzed for apoptotic and viable cells using acridine orange/ethidium bromide staining. […] (F) Apoptosis induction in LNCaP cells treated with 5 μmol/L of VNLG-147 and -152 in the presence or absence of ZVAD (5 μmol/L) was assessed by oligonucleosomal fragmentation after 24 h incubation. *, P< 0.05 compared with vehicle treated control. […]
Cells were harvested by trypsinization and then ﬁxed with 70% ethanol for 24 h at 4 °C. […] Stained cells were analyzed with a ﬂow cytometer using FlowJo software that exploits Watson algorithm to find out peak and S-phase populations from a univariate distribution curve.

- GI50 [1]: 3.23 µM
Structure (SMILES): CC1=C(/C=C/C(C)=C/C=C/C(C)=C/C(=O)Nc2ccc(F)cc2)C(C)(C)CCC1n1ccnc1 (racemic) [VNLG-152]
- GI50 [2]: 47.9 µM
- GI50 [3]: 3.89 µM
- percentage of cells in G1 phase [4]: 74.6%
